EP0813867B1, “Retroviral protease inhibitors” (priority 1990, dated 1992)
Where two headings read alike, the source gives them in different places. One block for each compound: values may come before it.

Experiments:
HIV protease = molecular target: T1, HIV protease (Human immunodeficiency virus type 1 group M subtype B, UniProt P04585); experiment: biochemical; type: biochemical
T1 construct: HIV protease is diluted in the assay buffer to a final enzyme concentration of 12.3 nanomolar, based on a molecular weight of 10,780
Procedure: The enzyme method is described below. The substrate is 2-aminobenzoyl-Ile-Nle-Phe(p-NO2)-Gln-ArgNH2. The positive control is MVT-101 (Miller, M. et al, Science, 246, 1149 (1989)] The assay conditions are as follows:
The above described substrate is dissolved in DMSO, then diluted 10 fold in assay buffer. Final substrate concentration in the assay is 80 µM.
HIV protease is diluted in the assay buffer to a final enzyme concentration of 12.3 nanomolar, based on a molecular weight of 10,780.
The final concentration of DMSO is 14% and the final concentration of glycerol is 18%. The test compound is dissolved in DMSO and diluted in DMSO to 10x the test concentration; 10µl of the enzyme preparation is added, the materials mixed and then the mixture is incubated at ambient temperature for 15 minutes. The enzyme reaction is initiated by the addition of 40µl of substrate. The increase in fluorescence is monitored at 4 time points (0, 8, 16 and 24 minutes) at ambient temperature. Each assay is carried out in duplicate wells.

HIV-1 = experiment: HIV inhibition assay of acutely infected CEM cells (tetrazolium based colorimetric, MTT); settings: Human immunodeficiency virus 1, CCRF-CEM, 168 h
Procedure: The HIV inhibition assay method of acutely infected cells is an automated tetrazolium based colorimetric assay essentially that reported by Pauwles et al, J. Virol. […] Assays were performed in 96-well tissue culture plates. CEM cells, a CD4^+ cell line, were grown in RPMI-1640 medium (Gibco) supplemented with a 10% fetal calf serum and were then treated with polybrene (2µg/ml). An 80 µl volume of medium containing 1 x 10^4 cells was dispensed into each well of the tissue culture plate. To each well was added a 100µl volume of test compound dissolved in tissue culture medium (or medium without test compound as a control) to achieve the desired final concentration and the cells were incubated at 37°C for 1 hour. A frozen culture of HIV-1 was diluted in culture medium to a concentration of 5 x 10^4 TCID50 per ml (TCID50 = the dose of virus that infects 50% of cells in tissue culture), and a 20µL volume of the virus sample (containing 1000 TCID50 of virus) was added to wells containing test compound and to wells containing only medium (infected control cells). Several wells received culture medium without virus (uninfected control cells). Likewise, the intrinsic toxicity of the test compound was determined by adding medium without virus to several wells containing test compound.
In experiments 2 and 4 the final concentrations of test compounds were 1, 10, 100 and 500 µg/ml. Either azidothymidine (AZT) or dideoxyinosine (ddI) was included as a positive drug control. […] DMSO was added to all control wells at an appropriate concentration.
Following the addition of virus, cells were incubated at 37°C in a humidified, 5% CO2 atmosphere for 7 days. Test compounds could be added on days 0, 2 and 5 if desired. On day 7, post-infection, the cells in each well were resuspended and a 100µl sample of each cell suspension was removed for assay. A 20µL volume of a 5 mg/ml solution of 3-(4,5-dimethylthiazol-2-yl)-2,5-diphenyltetrazolium bromide (MTT) was added to each 100µL cell suspension, and the cells were incubated for 4 hours at 27°C in a 5% CO2 environment. […] To each sample was added 100µl of 10% sodium dodecylsulfate in 0.01 N HCl to lyse the cells, and samples were incubated overnight. The absorbance at 590 nm was determined for each sample using a Molecular Devices microplate reader. Absorbance values for each set of wells is compared to assess viral control infection, uninfected control cell response as well as test compound by cytotoxicity and antiviral efficacy.

CEM cells = experiment: Intrinsic toxicity of the test compound in CEM cells without virus (MTT); type: cell-based; settings: Table 14, medium without virus, 7 days
Source text: Methods 20, 309-321 (1988).

[1] = IC50, Table 13, 12.3 nanomolar enzyme, 80 µM substrate, pH 6.4, ambient temperature
[2] = IC50, Table 14, above-described enzyme assay
[3] = Table 13, 12.3 nanomolar enzyme, 80 µM substrate, pH 6.4, ambient temperature, read-out: IC50

SMILES: COc1ccc(COC(=O)NC[C@@H](C)C(=O)N[C@@H](Cc2ccccc2)[C@H](O)CN(CCC(C)C)C(=O)NC(C)(C)C)cc1 [Compound 8, Propanamide, 3-(4-methoxybenzyloxy-carbonyl)amino-N-[3-[[[(11,-dimethylethyl)amino]carbonyl](3-methylbutyl)amino]-2-hydroxy-1-(phenylmethyl)propyl]-2-methyl-, [1S-[1R*(S*),2S*]]-]
IC50 (HIV protease; [1]): 6 nM

SMILES: CC(C)CN(CC(O)C(Cc1ccccc1)NC(=O)C(CC(N)=O)NC(=O)c1ccc2ccccc2n1)C(=O)NC(C)(C)C (stereo not drawn) [Compound 1b, Butanediamide, N^1-[3-[[[(1,1-dimethylethyl)amino]carbonyl](2-methylpropyl)amino]-2-hydroxy-1-(phenylmethyl)propyl]-2-[(2-quinolinylcarbonyl)amino]-, [1S-[1R*(R*),2S*]]-]
IC50 (HIV protease; [1]): 7.1 nM | IC50 (HIV protease; [2]): 7 nM | EC50 (HIV-1): 10 nM | TD50 (CEM cells): 16 µM

SMILES: CC(C)CCN(CC(O)C(Cc1ccccc1)NC(=O)C(C)CS(C)(=O)=O)C(=O)NC(C)(C)C (stereo not drawn) [Compound 6, Propanamide, N-[3-[[[(1,1-dimethylethyl)amino]carbonyl](3-methylbutyl)amino]-2-hydroxy-1-(phenylmethyl)propyl]-2-methyl-3-(methylsulfonyl)-, [1S-[1R*(R*), 2S*]]-]
IC50 (HIV protease; [3]): 29 nM

SMILES: NC(=O)CC(NC(=O)c1ccc2ccccc2n1)C(=O)NC(Cc1ccccc1)C(O)CN(Cc1ccc(F)cc1)C(=O)N1CCCC1 (stereo not drawn) [Compound 9, Butanediamide, N^1-[2-hydroxy-3-[(4-fluorophenylmethyl)(1-pyrrolidinylcarbonyl)amino]-1-(phenylmethyl)propyl]-2-[(2-quinolinylcarbonyl)amino]-, [1S-[1R*(R*),2S*]]-]
IC50 (HIV protease; [3]): 7 nM

SMILES: CC(C)(C)NC(=O)N(Cc1ccc2ccccc2c1)CC(O)C(Cc1ccccc1)NC(=O)C(CC(N)=O)NC(=O)c1ccc2ccccc2n1 (stereo not drawn) [Compound 3b, Butanediamide, N^1-[3-[[[(1,1-dimethylethyl)amino]carbonyl](2-naphthylmethyl)amino]-2-hydroxy-1-(phenylmethyl)propyl]-2-[(2-quinolinylcarbonyl)amino]-, [1S-[1R*(R*),2S*]]-]
IC50 (HIV protease; [3]): 2.9 nM

SMILES: CCCCNC(=O)N(CC(C)C)C[C@@H](O)[C@H](Cc1ccccc1)NC(=O)[C@H](CC(N)=O)NC(=O)OCc1ccccc1
EC50 (HIV-1): 17000 nM | TD50 (CEM cells): 170 to 180 µM

IC50 (HIV protease; [3]): 18 nM
SMILES: CC(=O)N[C@H](C(=O)N[C@@H](Cc1ccccc1)[C@H](O)CN(CCC(C)C)C(=O)NC(C)(C)C)C(C)(C)C [Compound 12, Butaneamide,2-(acetylamino)-N-[3-[[[(1,1-dimethylethyl)amino]-carbonyl](3-methylbutyl)amino]-2-hydroxy-1-(phenylmethyl)propyl]-3,3-dimethyl-, [1S-[1R*(R*),2S*]]-]

SMILES: CCCCNC(=O)N(CC(C)C)C[C@@H](O)[C@H](Cc1ccccc1)NC(=O)[C@H](CC(N)=O)NC(=O)c1ccc2ccccc2n1 [butanediamide N^1[3-[[[n-butylamino]carbonyl](2-methylpropyl)amino]-2-hydroxy-1-(phenylmethyl)propyl]-2-[(2-quinolinylcarbonyl)amino]-[1S-[1R*(R*), 2S*]]-.]
EC50 (HIV-1): 26 nM | TD50 (CEM cells): 53 µM

SMILES: CC(C)CCN(C[C@@H](O)[C@H](Cc1ccccc1)NC(=O)[C@H](CC(N)=O)NC(=O)OCc1ccccc1)C(=O)NC(C)(C)C [Compound 2a, Butanediamide, N^1-[3-[[[(1,1-dimethylethyl)amino]carbonyl](3-methylbutyl)amino]-2-hydroxy-1-(phenylmethyl)propyl]-2-[(N-benzyloxycarbonyl)amino], [1S-[1R*(R*),2S*]]-]
IC50 (HIV protease; [3]): 13.4 nM

SMILES: CC(C)CCN(C[C@@H](O)[C@H](Cc1ccccc1)NC(=O)[C@H](CC(N)=O)NC(=O)OCc1ccccc1)C(=O)NC(C)(C)C (relative stereo) [Compound 5a, Butanediamide, N^1-[3-[[[(1,1-dimethylethyl)amino]carbonyl](3,3-dimethylpropyl)amino]-2-hydroxy-1-(phenylmethyl)propyl]-2-[(N-benzyloxycarbonyl)amio], [1S-[1R*(R*),2S*]]-]
IC50 (HIV protease; Table 13, 12.3 nanomolar enzyme, 80 µM substrate, pH 6.4, ambient temperature): 18 nM

SMILES: CC(C)(C)NC(=O)N(CCc1ccccc1)CC(O)C(Cc1ccccc1)NC(=O)C(CC(N)=O)NC(=O)c1ccc2ccccc2n1 (stereo not drawn) [Compound 4b, Butanediamide, N^1-[3-[[[(1,1-dimethylethyl)amino]carbonyl](2-phenylethyl)amino]-2-hydroxy-1-(phenylmethyl)propyl]-2-[(2-quinolinylcarbonyl)amino]-, [1S-[1R*(R*),2S*]]-]
IC50 (HIV protease; [1]): 10 nM | IC50 (HIV protease; [2]): 10 nM | EC50 (HIV-1): 28 nM | TD50 (CEM cells): 13 µM

SMILES: CC(C)(C)NC(=O)N(CCc1ccccc1)CC(O)C(Cc1ccccc1)NC(=O)C(CC(N)=O)NC(=O)OCc1ccccc1 (stereo not drawn) [Compound 4a, Butanediamide, N^1-[3-[[[(1,1-dimethylethyl)amino]carbonyl](2-phenylethyl)amino]-2-hydroxy-1-(phenylmethyl)propyl]-2-[(N-benzyloxycarbonyl)amino]-, [1S-[1R*(R*),2S*]]-]
IC50 (HIV protease; [3]): 70 nM

IC50 (HIV protease; [3]): 12 nM
SMILES: CC(C)CCN(C[C@@H](O)[C@H](Cc1ccccc1)NC(=O)[C@H](C)C(C)(C)C(N)=O)C(=O)NC(C)(C)C [Compound 10, Butanediamide, N^1-[3-[[[(1,1-dimethylethyl)amino]carbonyl](3-methylbutyl)amino]-2-hydroxy-1-(phenylmethyl)propyl]-2,3,3-trimethyl-, [1S-[1R*(2S*),2S*]]-]

IC50 (HIV protease; [3]): 31 nM
SMILES: CC(C)(C)NC(=O)N(Cc1ccc2ccccc2c1)C[C@@H](O)[C@H](Cc1ccccc1)NC(=O)[C@H](CC(N)=O)NC(=O)OCc1ccccc1 [Compound 3a, Butanediamide, N^1-[3-[[[(1,1-dimethylethyl)amino]carbonyl](2-naphthylmethyl)amino]-2-hydroxy-1-(phenylmethyl)propyl]-2-[(N-benzyloxycarbonyl)amino]-, [1S-[1R*(R*), 2S*]]-]

SMILES: CC(C)CCN(C[C@@H](O)[C@H](Cc1ccccc1)NC(=O)[C@H](C)C(C)(C)C(=O)O)C(=O)NC(C)(C)C [Compound 11, Butanoic acid, 4-[[3-[[[(1,1-dimethylethyl)amino]carbonyl] (3-methylbutyl)amino]-2-hydroxy-1-(phenylmethyl)propyl]amino-2,2,3-trimethyl-4-oxo-, [1S-[1R*(3S*), 2S*]]-]
IC50 (HIV protease; [1]): 8 nM

SMILES: CC(C)CCN(CC(O)C(Cc1ccccc1)NC(=O)C(CC(N)=O)NC(=O)c1ccc2ccccc2n1)C(=O)NC(C)(C)C (stereo not drawn) [Compound 2b, Butanediamide, N^1-[3-[[[(1,1-dimethylethyl)amino]carbonyl](3-methylbutyl)amino]-2-hydroxy-1-(phenylmethyl)propyl]-2-[(2-quinolinylcarbonyl)amino]-, [1S-[1R*(R*),2S*]]-]
IC50 (HIV protease; [1]): 3.2 nM

SMILES: CC(C)CCN(CC(O)C(Cc1ccccc1)NC(=O)C(CC(N)=O)NC(=O)c1ccc2ccccc2n1)C(=O)NC(C)(C)C (stereo not drawn) [Compound 5b, Butanediamide, N^1-[3-[[[(1,1-dimethylethyl)amino]carbonyl](3,3-dimethylpropyl)amino]-2-hydroxy-1-(phenylmethyl)propyl]-2-[(2-quinolinylcarbonyl)amino]-, [1S-[1R*(R*),2S*]]-]
IC50 (HIV protease; [3]): 3.7 nM

SMILES: CC(=O)NCC(C)C(=O)NC(Cc1ccccc1)C(O)CN(CCC(C)C)C(=O)NC(C)(C)C (stereo not drawn) [Compound 7, Propanamide, 3-(acetylamino)-N-[3-[[[(11,-dimethylethyl)amino]carbonyl](3-methylbutyl)amino]-2-hydroxy-1-(phenylmethyl)propyl]-2-methyl-, [1S-[1R*(S*),2S*]]-]
IC50 (HIV protease; [3]): 100 nM
